14 molecules from patent publication US20240117385A1, “ENZYMES OF LUCIFERIN BIOSYNTHESIS AND USE THEREOF” (LIGHT BIO, INC., priority 2018, published 2024) can be followed below.

Data set [1] relates to hispidin-synthase and caffeylpyruvate hydrolase with Neonothopanus nambi luciferase and hispidin hydroxylase. Kind of data set: Luminescence with recombinant hispidin-synthase, caffeylpyruvate hydrolase, luciferase and hispidin hydroxylase. It is filed as biochemical. To be noted: 0.2 μM. On the procedure:
The obtained enzymes were used for obtaining luminescence (bioluminescence) in reaction with Neonothopanus nambi luciferase and hispidin hydroxylase, obtained according to Example 4. 5 μl of each isolated recombinant protein solution were put into a glass tube, comprising 100 μl of the buffer (0.2 M of Na-phosphate buffer, 0.5 M of Na2SO4, 0.1% dodecylmaltoside (DDM) pH 8.0), 1 mM of NADPH (Sigma-Aldrich, USA), 10 mM of ATP (ThermoFisher Scientific, USA), 1 mM of CoA (Sigma-Aldrich, USA), 1 mM of malonyl-CoA (Sigma-Aldrich, USA) and 0.2 μM of one of 3-arylacrylic acids: paracoumaric acid (Sigma-Aldrich, USA), cinnamic acid (Sigma-Aldrich, USA) or ferulic acid (Abcam, USA). In the other experiment instead of substituted 3-arylacrylic acid the analogues of fungal oxyluciferin—(2E,5E)-2-hydroxy-6-(4-hydroxyphenyl)-4-oxohexa-2,5-diene, (2E,5E)-2-hydroxy-4-oxo-6-phenylhexa-2,5-diene, or (2E,5E)-2-hydroxy-6-(4-hydroxy-3-methoxyphenyl)-4-oxohexa-2,5-diene acids—also at concentration of 0.2 μM were put into a glass tube. The glass tubes were placed into a luminometer.

Data set [2] concerns luciferase and hispidin hydroxylase of Neonothopanus nambi. Kind of data set: Hispidin hydroxylase with hispidin analogues in cell lysate. It is filed as biochemical. The following applies: 660 μg/ml, 1 mM NADPH, pH 8.0. On the procedure:
HEK293NT cells, expressing luciferase and hispidin hydroxylase of Neonothopanus nambi, obtained according to Example 2, were rinsed from Petri dishes 24 hours after transfection with Versene solution laced with 0.025% of trypsin, the medium was replaced by phosphate-buffered saline with pH 8.0 by centrifugation, the cells were resuspended, lysed by ultrasound in Bioruptor (Diagenode, Belgium) with in 7 minutes at 0° C. in conditions recommended by the manufacturer, and 1 mM of NADPH (Sigma-Aldrich, USA), and also hispidin or one of its analogues were added to the medium: (E)-4-hydroxy-6-(4-hydroxystyryl)-2H-pyran-2-one, (E)-6-(2-(1H-indol-3-yl)vinyl)-4-hydroxy-2H-pyran-2-one, (E)-6-(2-(1,2,3,5,6,7-hexahydropyrido[3,2,1-ij]quinolin-9-yl)vinyl)-4-hydroxy-2H-pyran-2-one, E)-6-(4-(diethylamino)styryl)-4-hydroxy-2H-pyran-2-one, or (E)-4-hydroxy-6-(2-(6-hydroxynaphthalene-2-yl)vinyl)-2H-pyran-2-one at concentration of 660 μg/ml. Bioluminescence spectra were detected by spectrofluorometer Varian Cary Eclipse. […] Depending on luciferin used the expected displacement of luminescence peak was observed.

In data set [3] the test system is recombinant hispidin hydroxylase from Neonothopanus nambi. Kind of data set: HPLC analysis of hydroxylation by recombinant hispidin hydroxylase. It is filed as biochemical. To be noted: 0.2 μM substrate, 1 mM NADPH, 30 minutes. On the procedure:
The isolated recombinant hispidin hydroxylase from Neonothopanus nambi, obtained according to Example 4, was added to reaction mixtures comprising 1 mM of NADPH and 0.2 μM of hispidin, (E)-4-hydroxy-6-styryl-2H-pyran-2-one or (E)-4-hydroxy-6-(4-hydroxystyryl)-2H-pyran-2-one in 100 μl of the buffer (0.2 M of Na-phosphate buffer, 0.5 M of Na2SO4, 0.1% dodecylmaltoside (DDM) pH 8.0). In 30 minutes, the reaction mixture was analyzed by HPLC using synthetic luciferins as standards.

The subject of data set [4] is recombinant hispidin hydroxylases. Kind of data set: Functionality test of isolated recombinant hispidin hydroxylases in luminometer. The data set is classed as biochemical. The following applies: 0.2 μM hispidin, 1 mM NADPH, Neonothopanus nambi luciferase. The method, then: Polyhistidine sequence (His tag) was operatively attached to 5′-end of nucleic acids coding hispidin-3-hydroxylases and luciferase from Neonothopanus nambi, obtained according to the examples 1 and 2. The obtained structures were cloned into pET-23 vector by means of restriction endonucleases BamHI and HindIII. The vector was used for transformation of Escherichia coli cells of BL21-DE3 strain. The cells were dispersed in Petri dishes with LB medium, comprising 1.5% of agar, 100 μg/ml of ampicillin, and incubated overnight at 37° C. Then, Escherichia coli colonies were transferred into 4 ml of liquid LB medium laced with ampicillin, incubated overnight at 37° C. with fluctuation. 1 ml of overnight culture was transferred into 100 ml of Overnight Express Autoinduction medium (Novagen), where ampicillin was preliminarily added to. The culture was grown at 37° C. within 2.5 hours until reaching optical density of 0.6 OE at 600 nm, and then it was grown at room temperature within 16 hours. […]
Aliquots of isolated recombinant hispidin hydroxylases were used for testing functionality and stability. […] In all cases the luminescence intensity when using hispidin was the highest when using Neonothopanus nambi hispidin hydroxylase and the lowest when using Armillaria mellea hispidin hydroxylase.

Data set [5] deals with Pichia pastoris GS115 yeast cells expressing luciferase, hispidin hydroxylase and coumarate-CoA ligase 1. The data set is described as follows: Screening of PKS for hispidin-synthase activity in yeast colonies sprayed with caffeic acid. The data set is classed as cell-based. The following applies: colonies sprayed with caffeic acid solution. The source says:
The selected nucleotide sequences for expression in Pichia pastoris yeast cells and Nicotiana benthamiana plant cells were optimized. The resulting nucleic acids were obtained synthetically and cloned into pGAPZ vector and used for verifying ability of the expressed proteins to synthesize hispidin.
For this purpose, in genome of Pichia pastoris GS115 yeast line, constitutively expressing Neonothopanus nambi luciferase and hispidin hydroxylase, obtained according to Example 1, there was additionally introduced pGAPZ plasmid, comprising gene of
Arabidopsis thaliana coumarate-CoA ligase 1 (which nucleotide and amino acid sequence are shown in SEQ ID NOs: 140, 141), also obtained by oligonucleotide synthesis. The plasmid was linearized at restriction site AvrII and used for transformation into Pichia pastoris GS115 cells.
The obtained yeast cells, constitutively expressing Neonothopanus nambi luciferase and hispidin hydroxylase and Arabidopsis thaliana coumarate-CoA ligase 1, were […] by plasmids comprising coding PKS sequences, and dispersed in Petri dishes with RDB medium, comprising 1 M of sorbitol, 2% (weight/volume) of glucose, 1.34% (weight/volume) of yeast nitrogen base (YNB), 0.005% (weight/volume) of amino acids mixture, 0.00004% (weight/volume) of biotin and 2% (weight/volume) of agar. To identify enzymes having hispidin-synthase activity, the obtained colonies were sprayed with caffeic acid solution, detecting hispidin-synthase presence in cells by occurrence of luminescence. Luminescence emitted by colonies was detected by means of IVIS Spectrum CT (Perkin Elmer, USA). Yeast line constitutively expressing luciferase, hispidin hydroxylase and coumarate-CoA ligase 1, and also wild yeast cells were used as negative control. […] Amino acid sequences coded by then are shown in SEQ ID NOs: 119, 121, 123, 125, 127, 129, 131, 133, 135, 137, 139 respectively.

As to `O=C(/C=C/c1ccccc1)/C=C(/O)C(=O)O` [(2E,5E)-2-hydroxy-4-oxo-6-phenylhexa-2,5-diene acid], the luminescence in reaction entry in data set [1] is reported as “resulted in luminescence”. On the same count and under the same terms, then `O=C(O)/C=C/c1ccccc1` [cinnamic acid], with “resulted in luminescence”. As for `O=c1cc(O)cc(/C=C/c2c[nH]c3ccccc23)o1` [(E)-6-(2-(1H-indol-3-yl)vinyl)-4-hydroxy-2H-pyran-2-one], the Luminescence in lysates result in data set [2] is listed as “Luminescence in lysates was observed”. Still for that read-out and setting: in the case of `O=c1cc(O)cc(/C=C/c2cc3c4c(c2)CCCN4CCC3)o1` [(E)-6-(2-(1,2,3,5,6,7-hexahydropyrido[3,2,1-ij]quinolin-9-yl)vinyl)-4-hydroxy-2H-pyran-2-one] it was “Luminescence in lysates was observed”. Take `O=c1cc(O)cc(/C=C/c2ccccc2)o1` [(E)-4-hydroxy-6-styryl-2H-pyran-2-one]: the “HPLC detection of hydroxylated product” value in data set [3] is reported as “occurrence of peaks corresponding to 3d position hydroxylated derivatives”. Consider `O=c1cc(O)cc(/C=C/c2ccc(O)cc2)o1` [(E)-4-hydroxy-6-(4-hydroxystyryl)-2H-pyran-2-one], for which the Luminescence in lysates result in data set [2] is “Luminescence in lysates was observed”. The “HPLC detection of hydroxylated product” value in data set [3] was “occurrence of peaks corresponding to 3d position hydroxylated derivatives”. As for `O=C(/C=C/c1ccc(O)cc1)/C=C(/O)C(=O)O` [(2E,5E)-2-hydroxy-6-(4-hydroxyphenyl)-4-oxohexa-2,5-diene acid], the luminescence in reaction result in data set [1] is “resulted in luminescence”. Consider `O=c1cc(O)cc(/C=C/c2ccc3cc(O)ccc3c2)o1` [(E)-4-hydroxy-6-(2-(6-hydroxynaphthalene-2-yl)vinyl)-2H-pyran-2-one], for which the Luminescence in lysates entry in data set [2] is “Luminescence in lysates was observed”.

Consider `O=C(O)/C=C/c1ccc(O)cc1` [paracoumaric acid], for which the luminescence in reaction result in data set [1] was “resulted in luminescence”. The same measure, in the same setting: in the case of `COc1cc(/C=C/C(=O)/C=C(/O)C(=O)O)ccc1O` [(2E,5E)-2-hydroxy-6-(4-hydroxy-3-methoxyphenyl)-4-oxohexa-2,5-diene acid] it was “resulted in luminescence”; in that of `COc1cc(/C=C/C(=O)O)ccc1O` [ferulic acid], “resulted in luminescence”. On to `CCN(CC)c1ccc(/C=C/c2cc(O)cc(=O)o2)cc1` [(E)-6-(4-(diethylamino)styryl)-4-hydroxy-2H-pyran-2-one], for which the Luminescence in lysates result in data set [2] is “Luminescence in lysates was observed”.

B1: Neonothopanus nambi hispidin hydroxylase: isolated recombinant hispidin hydroxylase from Neonothopanus nambi (protein, listed as Neonothopanus nambi)
chain: MASFENSLSVLIVGAGLGGLAAAIALRRQGHVVKIYDSSSFKAELGAGLAVPPNTLRSLQQLGCNTENLNGVDNLCFTAMGYDGSVGMMNNMTDYREAYGTSWIMVHRVDLHNELMRVALDPGGLGPPATLHLNHRVTFCDVDACTVTFTNGTTQSADLIVGADGIRSTIRRFVLEEDVTVPASGIVGFRWLVQADALDPYPELDWIVKKPPLGARLISTPQNPQSGVGLADRRTIIIYACRGGTMVNVLAVHDDERDQNTADWSVPASKDDLFRVFHDYHPRFRRLLELAQDINLWQMRVVPVLKKWVNKRVCLLGDAAHASLPTLGQGFGMGLEDAVALGTLLPKGTTASQIETRLAVYEQLRKDRAEFVAAESYEEQYVPEMRGLYLRSKELRDRVMGYDIKVESEKVLETLLRSSNSA
As for B1, the “luminescence intensity when using hispidin (comparison of hispidin hydroxylases)” value in data set [4] is “highest”.

B2: SEQ ID NO: 135: plant type III polyketide synthase (PKS) (protein, listed as Wachendorfia thyrsiflora)
chain: MASTEGIQAYRNNMAEGPATIMAIGTANPPNVVDASTFPDYYWRVTNSEHLSPEYRVKLKRICERSSIRKRHLVLTEQLLKENPTLTTYVDASYDERQSIVLDAVPKLACEAAAKAIKEWGRPKTDITHMVVCTGAGVDVPGVDYKMMNLLGLPPTVNRVMLYNVGCHASGTVLRIAKDLAENNKGARVLVVSSEVSVMFFRGPAEGDVEILLGQALFGDGSAAIIVGADPIEGVEKPIFQIFSASQMTLPEGEHLVAGHLRELGLTFHLKPQLPNTVSSNIHKPLKKAFEPLNITDWNSIFWIVHPGGRAILDQVQEKIGLEENKLDVSRYVLAENGNMMSASVFFIMDEMRKRSAAQGCSTTGEGHEWGVLFGFGPGLSIETVVLHSVPLSI
With B2, the hispidin-synthase activity entry in data set [5] was “had hispidin-synthase activity”.
